Source: ChEMBL document CHEMBL4673289, “Design, synthesis and biological evaluation of imidazolopyridone derivatives as novel BRD4 inhibitors” (Bioorg Med Chem, 2021)
Calls of active or inactive are those of the source. The rule behind the calls is not given here.

Key:
[1] = system: Mus musculus; assay: Downregulation of Ki67 expression in BALB/c mouse allografted with mouse Panc02 cells […] at 50 mg/kg, ip administered every day in combination with gemcitabine at 100 mg/kg measured after 20 days by immunohistochemical analysis; assay type: functional, organism-based; details: time 20.0 day
[2] = system: BXPC-3; assay: Induction of apoptosis in human BXPC-3 cells assessed as early apoptotic cells at 4 uM measured after 48 hrs by AnnexinV/propidium iodide staining based flow cytometry (reference value: 1.02 %); assay type: functional
[3] = system: BXPC-3; assay: Cell cycle arrest in human BXPC-3 cells assessed as acumulation at G0/G1 phase by measuring downregulation of CyclinE1 at 4 to 16 uM measured after 48 hrs by Western blot analysis; assay type: functional, cell-based; details: dose 4-16 µM
[4] = system: BXPC-3; assay: Inhibition of c-Myc protein expression in human BXPC-3 cells at 4 to 16 uM measured after 48 hrs by Western blot analysis; assay type: functional, cell-based; details: dose 4-16 µM
[5] = system: BXPC-3; assay: Induction of apoptosis in human BXPC-3 cells assessed as downregulation of Bcl-xl at 4 to 16 uM measured after 48 hrs by Western blot analysis; assay type: functional, cell-based; details: dose 4-16 µM
[6] = system: BXPC-3; assay: Induction of apoptosis in human BXPC-3 cells measured after 48 hrs by AnnexinV/propidium iodide staining based flow cytometry; assay type: functional, cell-based; details: dose 4-16 µM
[7] = system: Mus musculus; assay: Downregulation of Ki67 expression in BALB/c mouse allografted with mouse Panc02 cells […] at 50 mg/kg, ip administered every day measured after 20 days by immunohistochemical analysis; assay type: functional, organism-based; details: time 20.0 day
[8] = system: Panc02; assay: Antitumor activity against mouse Panc02 allografted in BALB/c mouse assessed as reduction in tumor weight at 50 mg/kg, ip administered every day for 20 days in combination with gemcitabine at 100 mg/kg relative to control; assay type: functional; details: 480 h, time 20 day, read-out: TGI
[9] = system: BXPC-3; assay: Induction of apoptosis in human BXPC-3 cells assessed as upregulation of Bax at 4 to 16 uM measured after 48 hrs by Western blot analysis; assay type: functional, cell-based; details: dose 4-16 µM
[10] = system: BXPC-3; assay: Induction of morphological changes in human BXPC-3 cells assessed as assessed as increase in apoptotic cells at 8 uM measured after 48 hrs by light microscopic analysis; assay type: functional, cell-based
[11] = system: BXPC-3; assay: Cell cycle arrest in human BXPC-3 cells assessed as accumulation at G1/S phase by measuring upregulation of Rb at 4 to 16 uM measured after 48 hrs by Western blot analysis; assay type: functional, cell-based; details: dose 4-16 µM
[12] = system: BXPC-3; assay: Cell cycle arrest in human BXPC-3 cells assessed as acumulation at G0/G1 phase by measuring downregulation of CyclinA2 at 4 to 16 uM measured after 48 hrs by Western blot analysis; assay type: functional, cell-based; details: dose 4-16 µM
[13] = system: BXPC-3; assay: Cell cycle arrest in human BXPC-3 cells assessed as acumulation at G0/G1 phase by measuring downregulation of CDK2 at 4 to 16 uM measured after 48 hrs by Western blot analysis; assay type: functional, cell-based; details: dose 4-16 µM

In the case of `CCS(=O)(=O)Nc1ccc(Oc2ccccc2F)c(-c2cn(C)c(=O)c3cncn23)c1`, the Activity [1] is reported as “Active”, the Activity [2] is reported as 1.46% and the Activity [3] is reported as “Active”. The inhibition [4] was “Active”, the Activity [5] was “Active” and the Activity [6] was “Dose-dependent effect”. For the same molecule, the Activity [7] was “Active”, the inhibition in vivo at 50 mg/kg [8] was 85% and the Activity [9] was “Active”. The Activity [10] was “Active”, the Activity [11] was “Active” and the Activity [12] was “Active”. For the same molecule, the Activity [13] was “Active”.
